{
  "source": "patent US8765698B2",
  "about": "“Methods and products for reawakening retrocyclins” (priority 2010, dated 2014)",
  "key": {"HIV-1 BaL": {"system": "HIV-1 BaL", "experiment": "Luciferase-based infection assay to determine anti-HIV-1 activity", "format": "cell-based", "conditions": "for HIV-1 infection of aminoglycoside-treated TZM-bl cells: HIV-1 BaL, 24 hr, compared to untreated cells", "experimental": "Treatments were then removed and the infection was quantified by measuring luciferase using Bright-Glo reagents (Promega, Madison, Wis.) in an LMax luminometer (Molecular Devices, Sunnyvale, Calif.). Cytotoxicity and metabolic activity of cells were verified by a tetrazolium-based MTT assay (R& D systems, Minneapolis, Minn.) performed on identically treated cells.\nFor antibody-mediated neutralization experiments, TZM-bl cells (4000 cells/well; 96 well plate) were cultured in D10^− medium and treated with vehicle (PBS) or 10 μg/ml of tobramycin for 24 hr. The next day, cells were treated with either rabbit preimmune or anti-retrocyclin serum diluted 1:10 in D10^− medium containing tobramycin or RC-100 (2.5 μg/ml). Two hours later the cells were infected with HIV-1 BaL (p24 of 5 ng/ml) at 37° C. for 24 hr. Viral infection was quantified as described above."}, "[1]": {"system": "Cervicovaginal tissues (EpiVaginal)", "experiment": "MTT assay on organotypic cervicovaginal tissue", "format": "cell-based, human", "conditions": "one tissue, data not shown", "procedure": "(§1) Cervicovaginal tissues were treated topically with 100 μl of PBS (control; n=4) or with 10 μg/ml of tobramycin (n=8) for 24 hr. Viability was assessed on control and tobramycin-treated tissue (n=1) using MTT assay kit (MatTek Corp., Ashland, Mass.). Cytotoxicity was measured by quantifying lactate dehydrogenase (LDH) activity in the underlying medium collected 24 hr after treatment with PBS or tobramycin by using CytoTox96 non-radioactive cytotoxicity assay kit (Promega Corp., Madison, Wis.)."}, "retrocyclin polypeptides": {"system": "retrocyclin polypeptides", "experiment": "Retrocyclin expression in cervicovaginal tissues, RP-HPLC, immuno-dotblot and immunostaining", "format": "cell-based, human"}, "[2]": {"system": "premature termination codon of retrocyclin cDNA", "experiment": "Aminoglycoside mediated read-through of termination codon, luciferase fusion construct in HOS-CD4-CCR5 cells", "format": "cell-based, human", "conditions": "10 μg/ml, 24 hr, luciferase normalized to renilla", "procedure": "Wildtype and mutant retrocyclin cDNAs were subcloned into phCMV-luc-FSR vector to create unrescued RC-101 and rescued RC-101 C-terminal luciferase fusion constructs, and verified by sequencing. HOS-CD4-CCR5 cells were cultured in antibiotic free growth medium (D10^−) and co-transfected with 0.5 μg of unrescued or rescued (positive control) RC-101 plasmids along with 0.1 μg of phRL-CMV vector (transfection control containing renilla luciferase gene) using Effectene transfection reagent (Qiagen, Valencia, Calif.). The next day cells were treated for 24 hr with the appropriate aminoglycoside (40 μg/ml amikacin or 5 μg/ml gentamicin or 10 μg/ml tobramycin) or D10^− for control cells. Read-through was determined by measuring luciferase and renilla levels using a dual luciferase assay (Promega Corp., Madison, Wis.)."}, "retrocyclin peptides": {"system": "retrocyclin peptides", "experiment": "Immunostaining of aminoglycoside-treated TZM-bl cells with anti-retrocyclin antibody", "format": "cell-based", "conditions": "10 μg/ml, 24 hr", "source_text": "The coverslips were then processed for immunofluorescence staining with anti-retrocyclin (rabbit anti-RC-101 antibody) or pre-immune serum as described above."}, "[3]": {"system": "Cervicovaginal tissues (EpiVaginal)", "experiment": "LDH cytotoxicity assay on organotypic cervicovaginal tissue", "format": "cell-based, human", "conditions": "10 μg/ml, 24 hr", "procedure": "as §1"}},
  "data": [
    {"molecule": "NC[C@H]1O[C@H](O[C@H]2[C@H](O)[C@@H](O[C@H]3O[C@H](CO)[C@@H](O)[C@H](N)[C@H]3O)[C@H](N)C[C@@H]2N)[C@H](N)C[C@@H]1O", "note": "[tobramycin]", "values": [
      {"measurement": "HIV-1 infection of aminoglycoside-treated TZM-bl cells", "setting": "HIV-1 BaL", "result": "inhibited HIV-1 infection"},
      {"measurement": "infection, preimmune serum compared to anti-retrocyclin antibodies", "setting": "HIV-1 BaL; TZM-bl cells, tobramycin 10 μg/ml for 24 hr, then serum, HIV-1", "result": "modest yet significant reduction in infection"},
      {"measurement": "metabolic activity of tissue (MTT assay)", "setting": "[1]", "result": "did not affect the metabolic activity adversely"},
      {"measurement": "amount of retrocyclin polypeptides expressed in treated cervicovaginal tissues", "setting": "retrocyclin polypeptides; 10 μg/ml tobramycin, estimated by densitometry of immuno-dotblot", "result": "approximately 1.6 μg/tissue"},
      {"measurement": "anti-retrocyclin immunohistochemical staining of cervicovaginal tissue", "setting": "retrocyclin polypeptides; applied apically, 24 hr", "result": "brightly stained cells"},
      {"measurement": "increase in read-through", "setting": "[2]", "result": 26, "unit": "fold"},
      {"measurement": "anti-retrocyclin immunostaining of TZM-bl cells", "setting": "retrocyclin peptides", "result": "brightly stained cells"},
      {"measurement": "tissue cytotoxicity (LDH activity in underlying medium)", "setting": "[3]", "result": "not cytotoxic"}
    ]},
    {"molecule": "gentamicin", "values": [
      {"measurement": "HIV-1 infection of aminoglycoside-treated TZM-bl cells", "setting": "HIV-1 BaL", "result": "inhibited HIV-1 infection"}
    ]}
  ]
}
